Assay results taken from US20120142645A1, “NEUROACTIVE STEROID COMPOSITIONS AND METHODS OF USE FOR LOWERING CHOLESTEROL” (priority 2009, published 2012).
Where “and” joins values, the source holds several entries; their conditions need not be identical. Identical values can stand only once.

What was measured:
[1] = tested on: patients with schizophrenia or schizoaffective disorder; assay: Psychiatric rating scales (PANSS, CGI, Calgary, SAS, BAS, AIMS, Quality of Life); same trial; format: in vivo, human; set-up: CGI-S score / Calgary Depression Scale, difference PG vs placebo / Heinrich Carpenter subscore Interpersonal and social work, difference PG vs placebo / Heinrich Carpenter subscore Occupational role function, difference PG vs placebo / Heinrich Carpenter subscore Other residual symptoms, difference PG vs placebo: scale not given here; conditions: for Heinrich Carpenter Quality of Life Scale, difference PG vs placebo: not significant (p=0.32); for PANSS General subscore / PANSS Negative symptoms subscore / PANSS Positive symptoms subscore / PANSS total score: mean; for CGI-I score: Week 8 (final), 2=much improved, 3=minimally improved, n = 9
Description: Study Design and Subjects. Disclosed herein is a placebo-controlled, double-blind, parallel group, randomized trial of adjunctive pregnenolone for the treatment of cognitive and negative symptoms in patients with schizophrenia or schizoaffective disorder. […] Patients received a total of 6 study visits, which took place every two weeks. […] The trial was conducted at a single site, the Durham Veterans Affairs Medical Center in Durham, N.C. The protocol was approved by the local institutional review board and conducted under FDA Investigational New Drug (IND) #71,768. The ClinicalTrials.gov number for this study is NCT00560937.
During the screening visit (Visit 1), patients received a physical exam, vital signs, and electrocardiogram (EKG), as well as baseline laboratory measures consisting of serum electrolytes, glucose, creatinine, blood urea nitrogen (chemistry 7 panel), liver function tests, complete blood count (CBC), urinalysis, urine toxicology test, thyroid stimulating hormone (TSH), and prolactin, and serum pregnancy test if female. These tests were also repeated at the completion of the study (Visit 6). In addition, patients received an interim EKG 4 weeks post-randomization, as well as a serum pregnancy test if female (Visit 4). Patients also received a chemistry 7 panel, CBC, and liver function tests at Visits 2, 3, 4, and 5 (i.e., at all study visits). Psychiatric symptoms were assessed at baseline using the Scale for the Assessment of Negative Symptoms (Andreasen, 1983), the Positive and Negative Symptom Scale (PANSS; Kay et al., 1987), the Calgary Depression Rating Scale (CDRS; Addington et al., 1990), the Clinical Global Impressions Improvement (CGI-I) and Severity (CGI-S) scales, the Barnes Akathisia Scale (BAS; Barnes, 1989), the Simpson Angus Scale for Extrapyramidal Symptoms (SAS; Simpson & Angus, 1970), the Quality of Life Scale (QOL; Heinrichs et al., 1984), and the Hillside Side Effects Scale. One research nurse with five years of experience in the conduction of schizophrenia clinical trials completed both psychiatric and cognitive assessments throughout the study, and was trained to one point of divergence on each PANSS item.

[2] = single oral dose 175 mg; over the course of 4-8 hours; Roberts, 1995; cited from earlier work
[3] = tested on: humans; conditions: cited from earlier work
[4] = Difference in changes from Week 0-8
[5] = Difference in changes from Week 0-8, points
[6] = Difference in changes from Week 0-8, points, listed as pregnenolone

## CC(=O)[C@H]1CC[C@H]2[C@@H]3CC=C4C[C@@H](O)CC[C@]4(C)[C@H]3CC[C@]12C [PG, pregnenolone]
[1]; Changes from Week 0-8
  CGI-S, change: −0.1
[1]; Changes from Week 0-8, n = 7
  Calgary Depression Scale, change: −1.6
[1]; Changes from Week 0-8, n = 8
  AIMS, change: −1.0
  Barnes Akathisia Scale, change: −0.4
  Heinrich Carpenter Quality of Life Scale, change: 7.9
  Heinrich Carpenter subscore Interpersonal and social work, change: 5.4
  Heinrich Carpenter subscore Occupational role function, change: 0.9
  Heinrich Carpenter subscore Other residual symptoms, change: 1.6
  PANSS General, change: −4.5
  PANSS Negative symptoms, change: −2.8
  PANSS Positive symptoms, change: −2.6
  PANSS total, change: −9.9
  Simpson-Angus Scale, change: −0.1
[1]; [4]
  AIMS, difference PG vs placebo: −0.6 ± 0.7
  Calgary Depression Scale, difference PG vs placebo: 0.4 ± 1.6
  Heinrich Carpenter subscore Interpersonal and social work, difference PG vs placebo: 3.6 ± 3.2
  Heinrich Carpenter subscore Occupational role function, difference PG vs placebo: 0.8 ± 0.6
  Heinrich Carpenter subscore Other residual symptoms, difference PG vs placebo: 0.9 ± 2.2
  PANSS General, difference PG vs placebo: −1.3 ± 2.1
  PANSS Positive symptoms, difference PG vs placebo: −1.6 ± 0.8
  Simpson-Angus Scale, difference PG vs placebo: −0.2 ± 0.4
[1]; [5]
  PANSS Negative symptoms, difference PG vs placebo: −1.5 ± 1.4
  Heinrich Carpenter Quality of Life Scale, difference PG vs placebo: 5.3 ± 5.1
[1]; [6]
  PANSS Negative symptoms, difference PG vs placebo: 1.53
  Heinrich Carpenter Quality of Life Scale, difference PG vs placebo: 5.27±5.07 and 5.27
[1]; Difference in changes from Week 0-8, points, not significant (p=0.24)
  PANSS total, difference PG vs placebo: −4.4 ± 3.6
[1]; Week 0 (baseline)
  AIMS score: 1.6
  Barnes Akathisia Scale score: 0.4
  CGI-S score: 4.0
  Calgary Depression Scale score: 2.4
  Heinrich Carpenter Quality of Life Scale score: 47.5
  Heinrich Carpenter subscore Interpersonal and social work: 17.9
  Heinrich Carpenter subscore Occupational role function: 1.9
  Heinrich Carpenter subscore Other residual symptoms: 27.8
  Simpson-Angus Scale score: 1.0
  PANSS General subscore: 35.5
  PANSS Negative symptoms subscore: 23.4
  PANSS Positive symptoms subscore: 13.6
  PANSS total score: 72.5
[1]; Week 0 (baseline), listed as pregnenolone
  CGI-S score: 4.00±0.50
[1]; Week 4
  AIMS score: 0.9
  Barnes Akathisia Scale score: 0.4
  Simpson-Angus Scale score: 1.3
  PANSS General subscore: 34.3
  PANSS Negative symptoms subscore: 23.2
  PANSS Positive symptoms subscore: 12.8
  PANSS total score: 67.9
[1]; Week 8
  AIMS score: 0.6
  Barnes Akathisia Scale score: 0.0
  Calgary Depression Scale score: 0.9
  Heinrich Carpenter Quality of Life Scale score: 55.4
  Heinrich Carpenter subscore Interpersonal and social work: 23.3
  Heinrich Carpenter subscore Occupational role function: 2.8
  Heinrich Carpenter subscore Other residual symptoms: 29.4
  Simpson-Angus Scale score: 0.9
  PANSS General subscore: 31.2
  PANSS Negative symptoms subscore: 20.6
  PANSS Positive symptoms subscore: 11.9
  PANSS total score: 63.6
[1]
  CGI-I score: 2.11
[1]; listed as pregnenolone
  CGI-I score: 2.11±0.33 and 2.11
[1]; Week 8 (post-treatment)
  CGI-S score: 3.9
[1]; Week 8 (post-treatment), listed as pregnenolone
  CGI-S score: 3.89±0.33
[2]
  Serum pregnenolone levels after single oral dose: approximately doubles
[3]; 15-30 mg/day, no significant side effects compared to placebo, Meieran et al., 2004
  Tolerability in healthy volunteers: generally well-tolerated
[3]; 25-500 mg/day, studies of the 1940s and 1950s
  Safety and tolerability in humans: safe and well-tolerated
